Assay results as given in patent publication US11530244B2, “Cyclic polypeptides for PCSK9 inhibition” (priority 2018, dated 2022).
Starred links: 1 amine or outer side, 2 acyl side, 3 side chain; linkers in the order of their positions; H or OH if unused. Positions of bridges follow the written chain, without caps; N, C: chain ends. Non-standard residues stand in square brackets, D forms with d. Residues, ends and D or L forms follow the SMILES beside them. Groups on a side chain read outwards from the residue. *: point of attachment. Phe(4-guanidino) = N=C(N)Nc1ccc(C[C@H](N)C(=O)O)cc1; NHCH2C6H4(p)CH2CH2NH = c1cc(CN[*:1])ccc1CCN[*:2]; NMeTrp(1-Me) = CN[C@@H](Cc1cn(C)c2ccccc12)C(=O)O; Ala(imidazol-2-yl) = N[C@@H](Cc1ncc[nH]1)C(=O)O; Trp(5-F) = N[C@@H](Cc1c[nH]c2ccc(F)cc12)C(=O)O; Pro(cis-4-F) = O=C(O)[C@@H]1C[C@H](F)CN1; X4 = O=C(CCSCc1cccc(CSCCN[*:1])c1)[*:2]; γGlu = O=C(O)[C@H](CCC(=O)[*:2])N[*:1]; 2Nal = N[C@@H](Cc1ccc2ccccc2c1)C(=O)O; mXylylene = c1cc(C[*:1])cc(C[*:2])c1; AEF = NCCOc1ccc(C[C@H](N)C(=O)O)cc1; X48 = CC(N[*:1])c1ncc(C(=O)[*:2])s1; Palmitoyl = CCCCCCCCCCCCCCCC(=O)*; NMeT = CN[C@H](C(=O)O)[C@@H](C)O; Aad = N[C@@H](CCCC(=O)O)C(=O)O; dNMeL = CN[C@H](CC(C)C)C(=O)O; αMeP = C[C@@]1(C(=O)O)CCCN1; Dab = NCC[C@H](N)C(=O)O; Nva = CCC[C@H](N)C(=O)O; Dap = NC[C@H](N)C(=O)O; AEEA = NCCOCCOCC(=O)O; Mpa = O=C(O)CCS

biological target: PCSK9 (Homo sapiens (Human), UniProt Q8NBP7); experiment: PCSK9 Alexa FRET Standard assay (displacement of AlexaFluor647 tagged cyclic peptide Reagent A); assay type: binding; conditions: PCSK9 Alexa FRET Standard assay, 0.5 nM PCSK9, 20 nM AF cyclic peptide Reagent A; read-out: IC50
Sequence (Q8NBP7 153-692): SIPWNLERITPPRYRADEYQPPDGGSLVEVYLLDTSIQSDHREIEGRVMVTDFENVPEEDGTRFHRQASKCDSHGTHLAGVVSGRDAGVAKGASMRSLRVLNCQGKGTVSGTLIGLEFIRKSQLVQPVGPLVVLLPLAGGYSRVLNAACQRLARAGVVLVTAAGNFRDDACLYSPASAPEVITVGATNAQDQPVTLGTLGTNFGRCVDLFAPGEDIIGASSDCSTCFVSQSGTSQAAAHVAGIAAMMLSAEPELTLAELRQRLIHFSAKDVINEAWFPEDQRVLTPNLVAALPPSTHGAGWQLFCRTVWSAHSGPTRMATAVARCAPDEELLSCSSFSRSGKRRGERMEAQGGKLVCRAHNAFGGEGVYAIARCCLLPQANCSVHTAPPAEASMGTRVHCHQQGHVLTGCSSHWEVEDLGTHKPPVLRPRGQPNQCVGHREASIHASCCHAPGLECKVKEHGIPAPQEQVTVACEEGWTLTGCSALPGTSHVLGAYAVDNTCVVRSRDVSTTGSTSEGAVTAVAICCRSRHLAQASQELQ
Method in brief: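 TR-FRET displacement: 0.5 nM biotinylated PCSK9 with 1.25 nM Strep-Eu and 20 nM AlexaFluor-tagged cyclic peptide (final) in 50 mM HEPES pH 7.4, 0.15 M NaCl, 5 mM CaCl2, 0.01% BSA, 0.01% P20, ≥2 h at room temperature. IC50 from sigmoidal fit, converted to Ki via peptide KD; falling Eu counts flagged false positives.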

`COc1ccc(C[C@@H]2NC(=O)[C@H](Cc3cnc[nH]3)NC(=O)[C@H](CC(=O)O)NC(=O)[C@H](Cc3c[nH]c4ccc(F)cc34)NC(=O)[C@H](Cc3c[nH]c4ccc(F)cc34)NC(=O)[C@@H](C)NC(=O)[C@H](CCCC(=O)O)NC(=O)CCSCc3cccc(c3)CSCCNC(=O)[C@]3(C)CCCN3C2=O)cc1` [Compound 427] (cyclo([Aad][dA][Trp(5-F)][Trp(5-F)]DHY(Me)[αMeP][X4])) and `COc1ccc(C[C@@H]2NC(=O)[C@H](Cc3ncc[nH]3)NC(=O)[C@H](CC(=O)O)NC(=O)[C@H](Cc3c[nH]c4ccc(F)cc34)NC(=O)[C@H](Cc3c[nH]c4ccc(F)cc34)NC(=O)[C@@H](C)NC(=O)[C@H](C)NC(=O)CCSCc3cccc(c3)CSCCNC(=O)[C@]3(C)CCCN3C2=O)cc1` [Compound 407] (cyclo(A[dA][Trp(5-F)][Trp(5-F)]D[Ala(imidazol-2-yl)]Y(Me)[αMeP][X4])) fall in the same range of IC50: 21 to 50 µM for the first, 21 to 50 µM for the second.

First: CC(=O)N[C@H]1CCCc2cn(nn2)-c2ccc(cc2)C[C@@H](C(N)=O)NC(=O)[C@]2(C)CCCN2C(=O)[C@H](Cc2ccc(O)cc2)NC(=O)[C@H](Cc2cnc[nH]2)NC(=O)[C@H](CC(=O)O)NC(=O)[C@H](Cc2c[nH]c3ccc(F)cc23)NC(=O)[C@H](Cc2c[nH]c3ccc(F)cc23)NC(=O)CNC(=O)[C@H](C)NC1=O [Compound 337]
Second: COc1ccc(C[C@@H]2NC(=O)[C@H](Cc3cnc[nH]3)NC(=O)[C@H](CC(=O)O)NC(=O)[C@H](Cc3c[nH]c4ccc(F)cc34)NC(=O)[C@H](Cc3c[nH]c4ccc(F)cc34)NC(=O)[C@@H](C)NC(=O)[C@H](CCCCN)NC(=O)[C@@H](NC(C)=O)CCC(=O)NCc3ccc(cc3)CCNC(=O)[C@]3(C)CCCN3C2=O)cc1 [Compound 421] (Ac-EK[dA][Trp(5-F)][Trp(5-F)]DHY(Me)[αMeP]; linker 1-C via NHCH2C6H4(p)CH2CH2NH)
The IC50 of the first is higher: 21 to 50 µM for the first, 0.1 to 1 µM for the second.

First: COc1ccc(C[C@@H]2NC(=O)[C@H](Cc3ncc[nH]3)NC(=O)[C@H](CC(=O)O)NC(=O)[C@H](Cc3c[nH]c4ccc(F)cc34)NC(=O)[C@H](Cc3c[nH]c4ccc(F)cc34)NC(=O)[C@@H](C)NC(=O)[C@H](CNC(=O)COCCOCCN)NC(=O)CCSCc3cccc(c3)CSCCNC(=O)[C@]3(C)CCCN3C2=O)cc1 [Compound 447] (cyclo(D[Ala(imidazol-2-yl)]Y(Me)[αMeP][X4][Dap](AEEA)[dA][Trp(5-F)][Trp(5-F)]))
Second: COc1ccc(C[C@@H]2NC(=O)[C@H](Cc3ncc[nH]3)NC(=O)[C@H](CC(=O)O)NC(=O)[C@H](Cc3c[nH]c4ccc(F)cc34)NC(=O)[C@H](Cc3c[nH]c4ccc(F)cc34)NC(=O)[C@@H](C)NC(=O)[C@H](Cc3ccc(N=C(N)N)cc3)NC(=O)CCSCc3cccc(c3)CSCCNC(=O)[C@]3(C)CCCN3C2=O)cc1 [Compound 441] (cyclo(D[Ala(imidazol-2-yl)]Y(Me)[αMeP][X4][Phe(4-guanidino)][dA][Trp(5-F)][Trp(5-F)]))
The IC50 of the first is lower: 0.1 to 1 µM for the first, 21 to 50 µM for the second. The first is the more potent here.

`COc1ccc(C[C@@H]2NC(=O)[C@H]([C@@H](C)O)NC(=O)[C@@H]3C[C@H](F)CN3C(=O)[C@H](Cc3c[nH]c4ccc(F)cc34)NC(=O)[C@H](Cc3c[nH]c4ccc(F)cc34)NC(=O)[C@@H](C)NC(=O)[C@H](NC(C)=O)CCC(=O)NCCOc3ccc(cc3)C[C@@H](C(N)=O)NC(=O)[C@]3(C)CCCN3C2=O)cc1` [Compound 056] (Ac-[dE][dA][Trp(5-F)][Trp(5-F)][Pro(cis-4-F)]TY(Me)[αMeP][AEF]-NH2; lactam 1-9) and `CC1NC(=O)CCSCc2cccc(c2)CSC[C@@H](C(N)=O)NC(=O)[C@]2(C)CCCN2C(=O)[C@H](Cc2ccc(O)cc2)NC(=O)[C@H](Cc2cnc[nH]2)NC(=O)[C@H](CC(=O)O)NC(=O)[C@H](Cc2c[nH]c3ccc(F)cc23)NC(=O)[C@H](Cc2c[nH]c3ccc(F)cc23)NC(=O)C2=CN=C1S2` (stereo partly shown) [Compound 434] ([Mpa][X48][Trp(5-F)][Trp(5-F)]DHY[αMeP]C-NH2; linker 1-9 via mXylylene) fall in the same range of IC50: 21 to 50 µM for the first, 21 to 50 µM for the second.

`CCCCCCCCCCCCCCCC(=O)N[C@@H](CCC(=O)NCCOCCOCC(=O)NCCOCCOCC(=O)NCC[C@H](NC(=O)CNC(=O)CNC(=O)[C@@H]1CSCc2cccc(c2)CSCCC(=O)N[C@@H](CCCCN)C(=O)N[C@H](C)C(=O)N[C@@H](Cc2c[nH]c3ccc(F)cc23)C(=O)N[C@@H](Cc2c[nH]c3ccc(F)cc23)C(=O)N[C@@H](CC(=O)O)C(=O)N[C@@H](Cc2cnc[nH]2)C(=O)N[C@@H](Cc2ccc(O)cc2)C(=O)N2CCC[C@@]2(C)C(=O)N1)C(N)=O)C(=O)O` [Compound 439] ([Mpa]K[dA][Trp(5-F)][Trp(5-F)]DHY[αMeP]CGG[Dab]([AEEA-AEEA-γGlu-Palmitoyl])-NH2; linker 1-10 via mXylylene) and `CCC[C@@H]1NC(=O)CCSCc2cccc(c2)CSC[C@@H](C(N)=O)NC(=O)[C@@H]2CCCN2C(=O)[C@H](Cc2ccc(OC)cc2)NC(=O)[C@H]([C@@H](C)OC)N(C)C(=O)[C@@H]2CCCN2C(=O)[C@H](Cc2cn(C)c3ccccc23)N(C)C(=O)[C@H](Cc2ccc3ccccc3c2)NC(=O)[C@@H](CC(C)C)N(C)C1=O` [Compound 039] ([Mpa][Nva][dNMeL][2Nal][NMeTrp(1-Me)]P[NMeT](Me)Y(Me)PC-NH2; linker 1-10 via mXylylene) fall in the same range of IC50: 21 to 50 µM for the first, 21 to 50 µM for the second.
